The results in this text go back to patent publication US10941132B2, “Pyrazole derivatives” (HUA MEDICINE (SHANGHAI) Ltd., priority 2016, dated 2021).

The term IC50 denotes the point on the concentration scale where inhibition reaches its midpoint.

The target in one experiment is T1, recombinant rat mGluR5 (Rattus norvegicus, UniProt P31424).
T1 construct: expressed in transfected cells
T1 sequence (P31424 21-1203): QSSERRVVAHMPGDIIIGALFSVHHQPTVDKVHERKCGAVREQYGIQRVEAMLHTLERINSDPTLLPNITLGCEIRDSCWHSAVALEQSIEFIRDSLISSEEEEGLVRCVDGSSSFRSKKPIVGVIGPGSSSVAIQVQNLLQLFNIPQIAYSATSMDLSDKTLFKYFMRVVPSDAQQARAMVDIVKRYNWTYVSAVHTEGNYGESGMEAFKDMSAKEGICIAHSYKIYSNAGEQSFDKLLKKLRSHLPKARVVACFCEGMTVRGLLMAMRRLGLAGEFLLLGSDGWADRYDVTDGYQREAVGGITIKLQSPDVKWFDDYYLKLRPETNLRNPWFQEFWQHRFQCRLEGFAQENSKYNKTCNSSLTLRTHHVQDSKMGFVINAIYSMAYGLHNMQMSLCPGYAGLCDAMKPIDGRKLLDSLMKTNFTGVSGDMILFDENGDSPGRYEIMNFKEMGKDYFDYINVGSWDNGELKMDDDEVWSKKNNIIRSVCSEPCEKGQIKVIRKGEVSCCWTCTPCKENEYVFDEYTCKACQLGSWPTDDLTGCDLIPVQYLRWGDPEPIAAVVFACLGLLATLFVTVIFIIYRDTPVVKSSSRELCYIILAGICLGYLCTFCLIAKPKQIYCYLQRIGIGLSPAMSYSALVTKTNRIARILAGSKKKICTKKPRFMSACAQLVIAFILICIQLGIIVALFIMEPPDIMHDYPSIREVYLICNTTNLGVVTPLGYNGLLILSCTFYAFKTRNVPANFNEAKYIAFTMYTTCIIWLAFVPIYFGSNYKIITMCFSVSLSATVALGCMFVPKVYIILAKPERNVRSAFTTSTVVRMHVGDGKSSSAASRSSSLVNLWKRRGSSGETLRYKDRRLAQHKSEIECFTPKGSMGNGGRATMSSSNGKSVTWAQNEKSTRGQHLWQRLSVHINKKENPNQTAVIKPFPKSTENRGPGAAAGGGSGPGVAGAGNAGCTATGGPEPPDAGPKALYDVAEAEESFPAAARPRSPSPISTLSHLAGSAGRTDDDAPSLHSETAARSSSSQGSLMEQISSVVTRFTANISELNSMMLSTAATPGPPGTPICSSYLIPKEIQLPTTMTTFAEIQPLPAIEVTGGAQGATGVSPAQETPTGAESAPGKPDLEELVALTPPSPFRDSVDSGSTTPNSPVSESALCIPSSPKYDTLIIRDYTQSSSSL
Description: Functional calcium flux assay (FLIPR), antagonist evaluation against glutamate-evoked [Ca2+]i increase. Format: cell-based. The note with it: Table 1; HEK293 cells stably expressing recombinant rat mGluR5; 15 min incubation of test compound, then submaximal glutamate; read-out: IC50 value (FLIPR assay). As for the experimental part:
Functional Calcium Clux Assay Methodology
For functional assays, HEK293 cells stably expressing recombinant rat mGluR5 were seeded in 384-well plates and dye loaded using Fluo-8. Cells were then washed to remove the un-incorporated dye. Antagonist evaluation was performed following a 15 min incubation of the test compound followed by the addition of submaximal concentration of glutamate. Intracellular calcium ([Ca^2+]i) measurements were performed using a fluorometric imaging plate reader (FLIPR, Molecular Devices). The glutamate-evoked increase in [Ca^2′]i in the presence of the test compounds was compared to the response to glutamate alone (the positive control). Antagonist inhibition curves were fitted with a 4-parameter logistic equation giving IC50 values, and Hill coefficients using an iterative nonlinear curve fitting algorithm.
The tables below provide IC50 data in this assay. In the activity column, A=IC50>1,000 and ≤5,000 nM; B=IC50>500 and ≤1,000 nM and C=IC50≤500 nM.
For orientation: A change in cytosolic calcium serves as a functional read-out for many receptors and channels.
For `N#Cc1cc(F)cc(-n2cc(C#Cc3ccccn3)c(OC(F)F)n2)c1` [Compound 47, 3-(3-(difluoromethoxy)-4-(pyridin-2-ylethynyl)-1H-pyrazol-1-yl)-5-fluorobenzonitrile], the IC50 is at most 500 nM. As for `N#Cc1cc(F)cc(-n2cc(C#Cc3ccccn3)c(OCCO)n2)c1` [Compound 48, 3-fluoro-5-(3-(2-hydroxyethoxy)-4-(pyridin-2-ylethynyl)-1H-pyrazol-1-yl)benzonitrile], the IC50 was at most 500 nM. Consider `Fc1ccc(-n2cc(C#Cc3ccccn3)c(Cl)n2)nc1` [Compound 49, 2-(3-chloro-4-(pyridin-2-ylethynyl)-1H-pyrazol-1-yl)-5-fluoropyridine], for which the IC50 was at most 500 nM. On the same count and under the same terms, the value for `Cc1c(C#Cc2ccccn2)cnn1-c1cc(F)cc(C#N)c1` [Compound 50, 3-fluoro-5-(5-methyl-4-(pyridin-2-ylethynyl)-1H-pyrazol-1-yl) benzonitrile] was at most 500 nM. Turning to `COc1c(C#Cc2ccccn2)cnn1-c1ccc(F)cc1` [Compound 51, 2-((1-(4-fluorophenyl)-5-methoxy-1H-pyrazol-4-yl)ethynyl)pyridine], the IC50 was at most 500 nM. Regarding `COc1nn(-c2ccc(F)cc2)cc1C#Cc1ccccn1` [Compound 52, 2-((1-(4-fluorophenyl)-3-methoxy-1H-pyrazol-4-yl)ethynyl)pyridine], the IC50 was at most 500 nM.

For the molecule `CN(C)CCOc1nn(-c2cc(F)cc(C#N)c2)cc1C#Cc1ccccn1` [Compound 53, 3-(3-(2-(dimethylamino)ethoxy)-4-(pyridin-2-ylethynyl)-1H-pyrazol-1-yl)-5-fluorobenzonitrile], the IC50 lay within 1000 to 5000 nM. On to `N#Cc1cc(F)cc(-n2cc(C#Cc3ccccn3)c(C3CC3)n2)c1` [Compound 54, 3-(3-cyclopropyl-4-(pyridin-2-ylethynyl)-1H-pyrazol-1-yl)-5-fluorobenzonitrile], for which the IC50 is at most 500 nM. For the molecule `N#Cc1cc(F)cc(-n2cc(C#Cc3ncccn3)c(C3CC3)n2)c1` [Compound 55, 3-(3-cyclopropyl-4-(pyrimidin-2-ylethynyl)-1H-pyrazol-1-yl)-5-fluorobenzonitrile], the IC50 is at most 500 nM.

On to `COCCOc1c(C#Cc2ccccn2)cnn1-c1ccc(F)cc1` [Compound 56], for which the IC50 is at most 500 nM. Take `CS(=O)(=O)c1ccc(-n2cc(C#Cc3ccccn3)c(Cl)n2)cc1` [Compound 58, 2-((3-chloro-1-(4-(methylsulfonyl)phenyl)-1H-pyrazol-4-yl)ethynyl)pyridine]: the IC50 is 1000 to 5000 nM.

Consider `COc1c(C#Cc2ccccn2)cnn1-c1ccc(F)cn1` [Compound 62, 5-fluoro-2-(5-methoxy-4-(pyridin-2-ylethynyl)-1H-pyrazol-1-yl)], for which the IC50 was at most 500 nM.

Take `Cc1nn(-c2ccc(F)cn2)cc1C#Cc1ccccn1` [Compound 63, 5-fluoro-2-(3-methyl-4-(pyridin-2-ylethynyl)-1H-pyrazol-1-yl)]: the IC50 was at most 500 nM. Turning to `COCCOc1nn(-c2ccc(F)cn2)cc1C#Cc1ccccn1` [Compound 64, S-fluoro-2-(3-(2-methoxyethoxy)-4-(pyridin-2-ylethynyl)-1H-pyrazol-1-yl)pyridine], the IC50 is 500 to 1000 nM. On to `FC(F)(F)Oc1ccc(-n2cc(C#Cc3cnccn3)cn2)cc1` [Compound 65, 2-((1-(4-(trifluoromethoxy)phenyl)-1H-pyrazol-4-yl)ethyny)pyrazine], for which the IC50 lay within 1000 to 5000 nM.

Staying with this experiment, now noted: Table 2; HEK293 cells stably expressing recombinant rat mGluR5; 15 min incubation of test compound, then submaximal glutamate; read-out: IC50 (FLIPR assay).
Turning to `Cc1cn(-c2cc(F)cc(C#N)c2)nc1C#Cc1ccccn1` [Compound 59, 3-fluoro-5-(4-methyl-3-(pyridin-2-ylethynyl)-1H-pyrazol-1-yl) benzonitrile], the IC50 was at most 500 nM. Turning to `Cc1cn(-c2cc(F)cc(C#N)c2)nc1C#Cc1ncccn1` [Compound 60, 3-fluoro-5-(4-methyl-3-(pyrimidin-2-ylethynyl)-1H-pyrazol-1-yl) benzonitrile], the IC50 is at most 500 nM. Same read-out and setting: the figure for `N#Cc1cc(F)cc(-n2cc(Cl)c(C#Cc3ccccn3)n2)c1` [Compound 61, 3-(4-chloro-3-(pyridin-2-ylethynyl)-1H-pyrazol-1-yl)-5-fluorobenzonitrile] is at most 500 nM.
